Measurements from PubChem BioAssay (NCI).
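Five compound concentrations were applied to cells in 96-well plates for 48 hours; endpoints were derived by simple linear interpolation of the resulting dose-response curve. TGI: concentration producing complete growth inhibition.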

Assays:
Experiment in all cases: DTP human tumour cell line panel, 48 h
A549 NSCLC = system: A549 NSCLC
BT-549 breast = system: BT-549 breast
EKVX NSCLC = system: EKVX NSCLC
HCT-15 colon = system: HCT-15 colon
HT29 colon = system: HT29 colon
LOX IMVI melanoma = system: LOX IMVI melanoma
MALME-3M melanoma = system: MALME-3M melanoma
MCF7 breast = system: MCF7 breast
MDA-MB-435 = system: MDA-MB-435
MOLT-4 leukemia = system: MOLT-4 leukemia
NCI-H226 lung = system: NCI-H226 lung
SK-MEL-2 melanoma = system: SK-MEL-2 melanoma
SN12C renal = system: SN12C renal
UACC-257 melanoma = system: UACC-257 melanoma
A498 renal = system: A498 renal

O=C(Nc1ccc(Cl)cc1)NS(=O)(=O)c1coc2cc(F)ccc2c1=O
TGI (A549 NSCLC): > 100 µM | TGI (BT-549 breast): > 100 µM | TGI (EKVX NSCLC): > 100 µM | TGI (HCT-15 colon): > 100 µM | TGI (HT29 colon): > 100 µM | TGI (LOX IMVI melanoma): > 100 µM | TGI (MALME-3M melanoma): > 100 µM | TGI (MCF7 breast): > 100 µM | TGI (MDA-MB-435): > 100 µM | TGI (MOLT-4 leukemia): > 100 µM | TGI (NCI-H226 lung): > 100 µM | TGI (SK-MEL-2 melanoma): > 100 µM | TGI (SN12C renal): > 100 µM | TGI (UACC-257 melanoma): > 100 µM

C(=C\c1cccs1)/c1cccc(/C=C/c2cccs2)n1
TGI (A549 NSCLC): > 100 µM | TGI (BT-549 breast): > 100 µM | TGI (EKVX NSCLC): > 100 µM | TGI (HCT-15 colon): > 100 µM | TGI (HT29 colon): > 100 µM | TGI (LOX IMVI melanoma): > 100 µM | TGI (MALME-3M melanoma): 3.21 µM | TGI (MCF7 breast): > 100 µM | TGI (MDA-MB-435): > 100 µM | TGI (MOLT-4 leukemia): > 100 µM | TGI (NCI-H226 lung): > 100 µM | TGI (SK-MEL-2 melanoma): > 100 µM | TGI (SN12C renal): > 100 µM | TGI (UACC-257 melanoma): > 100 µM

COc1ccc2[nH]cc(CCNC(=O)[C@H](Cc3ccccc3)NC(=O)[C@@H](NCC(F)(F)F)C(C)C)c2c1
TGI (A549 NSCLC): 70 µM | TGI (BT-549 breast): 42.5 µM | TGI (EKVX NSCLC): 44 µM | TGI (HCT-15 colon): 42.2 µM | TGI (HT29 colon): 31.5 µM | TGI (LOX IMVI melanoma): 37.6 µM | TGI (MALME-3M melanoma): 51.9 µM | TGI (MCF7 breast): 36.5 µM | TGI (MDA-MB-435): 34.8 µM | TGI (MOLT-4 leukemia): 69.5 µM | TGI (NCI-H226 lung): 44 µM | TGI (SK-MEL-2 melanoma): 38.3 µM | TGI (SN12C renal): 49 µM | TGI (UACC-257 melanoma): 37.8 µM

Clc1ccc(NCc2nnc(CCCCCCCCc3nnc(CNc4ccc(Cl)cc4)o3)o2)cc1
TGI (A498 renal): > 100 µM | TGI (A549 NSCLC): > 100 µM | TGI (BT-549 breast): > 100 µM | TGI (EKVX NSCLC): > 100 µM | TGI (HCT-15 colon): > 100 µM | TGI (HT29 colon): > 100 µM | TGI (LOX IMVI melanoma): > 100 µM | TGI (MALME-3M melanoma): > 100 µM | TGI (MCF7 breast): > 100 µM | TGI (MDA-MB-435): > 100 µM | TGI (MOLT-4 leukemia): > 100 µM | TGI (SK-MEL-2 melanoma): > 100 µM | TGI (SN12C renal): > 100 µM | TGI (UACC-257 melanoma): > 100 µM

COC1=C(OC)C(=O)C(Cc2c(Cl)nc3sc(C)cn23)=C(C)C1=O
TGI (A498 renal): 65.5 µM | TGI (A549 NSCLC): 41.8 µM | TGI (BT-549 breast): 34.2 µM | TGI (EKVX NSCLC): 35.6 µM | TGI (HCT-15 colon): 67.9 µM | TGI (HT29 colon): 36.3 µM | TGI (LOX IMVI melanoma): 34.1 µM | TGI (MALME-3M melanoma): 26.5 µM | TGI (MCF7 breast): 63.5 µM | TGI (MDA-MB-435): 35.3 µM | TGI (MOLT-4 leukemia): 4.21 µM | TGI (SK-MEL-2 melanoma): 76.9 µM | TGI (SN12C renal): 30.5 µM | TGI (UACC-257 melanoma): 22.8 µM

O=C1/C(=C/c2cccc(Br)c2)CCc2ccccc21
TGI (A549 NSCLC): 34.6 µM | TGI (BT-549 breast): 22.2 µM | TGI (EKVX NSCLC): 32.7 µM | TGI (HCT-15 colon): 24.1 µM | TGI (HT29 colon): 27.1 µM | TGI (LOX IMVI melanoma): 28.5 µM | TGI (MALME-3M melanoma): 26 µM | TGI (MCF7 breast): 14.9 µM | TGI (MDA-MB-435): 25.4 µM | TGI (MOLT-4 leukemia): 42.1 µM | TGI (NCI-H226 lung): 31.1 µM | TGI (SK-MEL-2 melanoma): 25.8 µM | TGI (SN12C renal): 29.2 µM | TGI (UACC-257 melanoma): 28.6 µM

O=c1c2c(oc3ccccc13)-c1ccccc1OC2
TGI (A549 NSCLC): > 100 µM | TGI (BT-549 breast): > 100 µM | TGI (EKVX NSCLC): > 100 µM | TGI (HCT-15 colon): > 100 µM | TGI (HT29 colon): > 100 µM | TGI (LOX IMVI melanoma): > 100 µM | TGI (MALME-3M melanoma): > 100 µM | TGI (MCF7 breast): > 100 µM | TGI (MDA-MB-435): > 100 µM | TGI (MOLT-4 leukemia): > 100 µM | TGI (NCI-H226 lung): > 100 µM | TGI (SK-MEL-2 melanoma): > 100 µM | TGI (SN12C renal): > 100 µM | TGI (UACC-257 melanoma): > 100 µM

CNc1ncnc2c1ncn2C1C=CC(COS(N)(=O)=O)C1 (centres undefined)
TGI (A498 renal): > 100 µM | TGI (A549 NSCLC): > 100 µM | TGI (BT-549 breast): > 100 µM | TGI (EKVX NSCLC): > 100 µM | TGI (HCT-15 colon): > 100 µM | TGI (HT29 colon): > 100 µM | TGI (LOX IMVI melanoma): > 100 µM | TGI (MALME-3M melanoma): > 100 µM | TGI (MCF7 breast): > 100 µM | TGI (MDA-MB-435): > 100 µM | TGI (MOLT-4 leukemia): > 100 µM | TGI (SK-MEL-2 melanoma): > 100 µM | TGI (SN12C renal): > 100 µM | TGI (UACC-257 melanoma): > 100 µM

Cc1nc2ccccc2n1COC(Cn1ccnc1)c1ccc(Cl)cc1Cl (centres undefined)
TGI (A498 renal): > 100 µM | TGI (A549 NSCLC): > 100 µM | TGI (BT-549 breast): 91.2 µM | TGI (EKVX NSCLC): > 100 µM | TGI (HCT-15 colon): > 100 µM | TGI (HT29 colon): > 100 µM | TGI (LOX IMVI melanoma): > 100 µM | TGI (MALME-3M melanoma): > 100 µM | TGI (MCF7 breast): > 100 µM | TGI (MDA-MB-435): > 100 µM | TGI (MOLT-4 leukemia): > 100 µM | TGI (SK-MEL-2 melanoma): > 100 µM | TGI (SN12C renal): > 100 µM | TGI (UACC-257 melanoma): > 100 µM

COCCOC(=O)c1c(C)n([O-])c2cc(Cl)c(Cl)cc2[n+]1=O
TGI (A498 renal): 61.9 µM | TGI (A549 NSCLC): 35.7 µM | TGI (BT-549 breast): 67.1 µM | TGI (EKVX NSCLC): 36.8 µM | TGI (HCT-15 colon): 22.3 µM | TGI (HT29 colon): 41.8 µM | TGI (LOX IMVI melanoma): 40.8 µM | TGI (MALME-3M melanoma): 46.3 µM | TGI (MCF7 breast): > 100 µM | TGI (MDA-MB-435): 66.2 µM | TGI (MOLT-4 leukemia): 62.5 µM | TGI (SK-MEL-2 melanoma): 72.7 µM | TGI (SN12C renal): 70 µM | TGI (UACC-257 melanoma): > 100 µM

O=C1/C(=C/c2cccc(F)c2)CCCc2ccccc21
TGI (A549 NSCLC): 38.2 µM | TGI (BT-549 breast): 34.1 µM | TGI (EKVX NSCLC): 28.6 µM | TGI (HCT-15 colon): 29.3 µM | TGI (HT29 colon): 25.9 µM | TGI (LOX IMVI melanoma): 30.1 µM | TGI (MALME-3M melanoma): 23.8 µM | TGI (MCF7 breast): 30.5 µM | TGI (MDA-MB-435): 29.7 µM | TGI (MOLT-4 leukemia): 43.6 µM | TGI (NCI-H226 lung): 27.7 µM | TGI (SK-MEL-2 melanoma): 29.8 µM | TGI (SN12C renal): 31.8 µM | TGI (UACC-257 melanoma): 30.6 µM

CCOC(=O)c1cccn1S(=O)(=O)c1cc(Cl)ccc1NC(=O)CC
TGI (A498 renal): > 100 µM | TGI (A549 NSCLC): > 100 µM | TGI (BT-549 breast): > 100 µM | TGI (EKVX NSCLC): > 100 µM | TGI (HCT-15 colon): > 100 µM | TGI (LOX IMVI melanoma): > 100 µM | TGI (MCF7 breast): > 100 µM | TGI (MDA-MB-435): > 100 µM | TGI (MOLT-4 leukemia): > 100 µM | TGI (SK-MEL-2 melanoma): > 100 µM | TGI (SN12C renal): > 100 µM | TGI (UACC-257 melanoma): > 100 µM

CCOC(=O)/C(C#N)=C\c1ccc(N(CCC(=O)O)CCC(=O)O)c(I)c1
TGI (A549 NSCLC): > 10 µM | TGI (BT-549 breast): > 10 µM | TGI (EKVX NSCLC): > 10 µM | TGI (HCT-15 colon): > 10 µM | TGI (HT29 colon): > 10 µM | TGI (LOX IMVI melanoma): > 10 µM | TGI (MALME-3M melanoma): > 10 µM | TGI (MCF7 breast): > 10 µM | TGI (MDA-MB-435): > 10 µM | TGI (MOLT-4 leukemia): > 10 µM | TGI (NCI-H226 lung): > 10 µM | TGI (SN12C renal): > 10 µM | TGI (UACC-257 melanoma): > 10 µM
